The values that follow come from patent US9822058B2 (CHDI FOUNDATION, INC., priority 2012, dated 2017).

T1 sequence (Q91WN4 whole entry): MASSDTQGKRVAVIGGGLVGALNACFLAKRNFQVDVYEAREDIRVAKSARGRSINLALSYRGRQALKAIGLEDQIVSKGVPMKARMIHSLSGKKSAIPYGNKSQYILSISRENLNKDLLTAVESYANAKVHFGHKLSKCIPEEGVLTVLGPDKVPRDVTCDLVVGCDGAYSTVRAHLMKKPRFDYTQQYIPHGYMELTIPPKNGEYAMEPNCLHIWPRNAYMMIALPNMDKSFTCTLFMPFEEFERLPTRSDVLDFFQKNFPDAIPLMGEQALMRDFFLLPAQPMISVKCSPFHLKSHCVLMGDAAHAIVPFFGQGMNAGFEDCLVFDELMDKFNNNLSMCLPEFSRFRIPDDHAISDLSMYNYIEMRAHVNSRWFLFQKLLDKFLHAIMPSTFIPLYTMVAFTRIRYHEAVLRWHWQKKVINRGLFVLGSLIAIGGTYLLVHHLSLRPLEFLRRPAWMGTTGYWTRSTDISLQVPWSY

The first experiment addresses T1, KMO mouse enzyme (Mus musculus, UniProt Q91WN4).
T1 construct: KMO enzyme prepared at Evotec from mouse liver (4-6 weeks old) via mitochondria isolation; from tissue; host or cells: mouse liver (4-6 weeks old), isolated mitochondria, prepared at Evotec
Briefly: KMO mouse enzyme assay: L-Kynurenine hydroxylation to 3-Hydroxy-Kynurenine by LC/MS (protocols substantially similar to Example 33). It is filed as biochemical. As to conditions: compound at 30 µM; KMO enzyme from mouse liver mitochondria; 100 μM L-Kynurenine; 40 min at RT. How it is done:
A method of monitoring L-Kynurenine (KYN) hydroxylation to form 3-Hydroxy-Kynurenine (3OH-KYN) by LC/MS is described. Product is quantified by multiple reaction monitoring (MRM method). […]
Using the assay protocols substantially similar to those of Example 33, the following compounds were tested.
By inhibition is commonly meant the change of the read-out against control, counted positive when it falls. For the compound `C[C@H]1[C@@H](C(=O)O)[C@@H]1C(=O)c1ccc(Cl)c(Cl)c1` (single isomer, unassigned), the inhibition at 30 µM came to 101%.

As to `C[C@@H]1[C@@H](C(=O)O)[C@@H]1C(=O)c1ccc(Cl)c(Cl)c1` (single isomer, unassigned), the inhibition at 30 µM was 96.7%.

Take `C[C@H]1[C@H](C(=O)O)[C@H]1C(=O)c1ccc(Cl)c(Cl)c1` (single isomer, unassigned): the inhibition at 30 µM turned out to be 101%.

For `C[C@@H]1[C@H](C(=O)O)[C@H]1C(=O)c1ccc(Cl)c(Cl)c1` (single isomer, unassigned), the inhibition at 30 µM came out at 52.5%.

For the compound `O=C(c1ccc(Cl)c(Cl)c1)C1CC12CCOC2=O` (stereo not drawn) [1-[(3,4-dichlorophenyl)carbonyl]-5-oxaspiro[2.4]heptan-4-one], the inhibition at 30 µM was found to be 38%.

As for `CCOC(=O)OC(C)OC(=O)[C@H]1C[C@@H]1C(=O)c1ccc(Cl)c(Cl)c1` (stereo partly drawn) [1-[(Ethoxycarbonyl)oxy]ethyl (1S,2S)-2-[(3,4-dichlorophenyl)carbonyl]cyclopropane-1-carboxylate], the inhibition at 30 µM turned out to be 102%.

For `CC(=O)OC(C)OC(=O)[C@H]1C[C@@H]1C(=O)c1ccc(Cl)c(Cl)c1` (stereo partly drawn) [1-{[(1S,2S)-2-[(3,4-Dichlorophenyl)carbonyl]cyclopropyl]carbonyloxy}ethyl acetate], the inhibition at 30 µM was 103%.

As for `CC(OC(=O)[C@H]1C[C@@H]1C(=O)c1ccc(Cl)c(Cl)c1)OC(=O)[C@H]1C[C@@H]1C(=O)c1ccc(Cl)c(Cl)c1` [1-{[(1S,2S)-2-[(3,4-dichlorophenyl)carbonyl]cyclopropyl]carbonyloxy}ethyl (1S,2S)-2-[(3,4-dichlorophenyl)carbonyl]cyclopropane-1-carboxylate], the inhibition at 30 µM amounted to 98%.

For `CC(C)OC(=O)OC(C)OC(=O)[C@H]1C[C@@H]1C(=O)c1ccc(Cl)c(Cl)c1` (stereo partly drawn) [1-{[(Propan-2-yloxy)carbonyl]oxy}ethyl (1S,2S)-2-[(3,4-dichlorophenyl)carbonyl]cyclopropane-1-carboxylate], the inhibition at 30 µM stood at 103%.

Take `CCN(CC)CCOC(=O)[C@H]1C[C@@H]1C(=O)c1ccc(Cl)c(Cl)c1` [2-(Diethylamino)ethyl (1S,2S)-2-[(3,4-dichlorophenyl)carbonyl]cyclopropane-1-carboxylate]: the inhibition at 30 µM stood at 102%.

Turning to `O=C(OCCO)[C@H]1C[C@@H]1C(=O)c1ccc(Cl)c(Cl)c1` [2-Hydroxyethyl (1S,2S)-2-[(3,4-dichlorophenyl)carbonyl]cyclopropane-1-carboxylate], the inhibition at 30 µM worked out at 102%.

Consider `CC(C)COC(=O)[C@H]1C[C@@H]1C(=O)c1ccc(Cl)c(Cl)c1` [2-Methylpropyl (1S,2S)-2-[(3,4-dichlorophenyl)carbonyl]cyclopropane-1-carboxylate], for which the inhibition at 30 µM was 101%.

As to `O=C(c1ccc(Cl)c(Cl)c1)[C@H]1C[C@@H]1c1noc(=O)[nH]1` [3-[(1S,2S)-2-[(3,4-Dichlorophenyl)carbonyl]cyclopropyl]-4,5-dihydro-1,2,4-oxadiazol-5-one], the inhibition at 30 µM was 101%.

On to `O=C(c1ccc(F)c(Cl)c1)[C@H]1C[C@@H]1c1noc(=O)[nH]1` [3-[(1S,2S)-2-[(3-Chloro-4-fluorophenyl)carbonyl]cyclopropyl]-4,5-dihydro-1,2,4-oxadiazol-5-one], for which the inhibition at 30 µM worked out at 101%.

As for `CC(C)(C)c1ccc(OC(=O)[C@H]2C[C@@H]2C(=O)c2ccc(Cl)c(Cl)c2)cc1` [4-tert-Butylphenyl (1S,2S)-2-[(3,4-dichlorophenyl)carbonyl]cyclopropane-1-carboxylate], the inhibition at 30 µM came out at 101%.

Regarding `O=C1CN(C(=O)[C@H]2C[C@@H]2C(=O)c2ccc(Cl)c(Cl)c2)CCN1` [4-{[(1S,2S)-2-[(3,4-Dichlorophenyl)carbonyl]cyclopropyl]carbonyl}piperazin-2-one], the inhibition at 30 µM was 33%.

`O=C(c1ccc(Cl)c(Cl)c1)[C@H]1C[C@@H]1c1nnn[nH]1` [5-[(1S,2S)-2-[(3,4-Dichlorophenyl)carbonyl]cyclopropyl]-1H-1,2,3,4-tetrazole]: the inhibition at 30 µM turned out to be 101%.

As to `CC1(C)[C@H](C(=O)O)[C@H]1C(=O)c1ccc(Cl)c(Cl)c1` [(1R,3R)-3-(3,4-dichlorobenzoyl)-2,2-dimethylcyclopropane-1-carboxylic acid], the inhibition at 30 µM was 54%.

Take `O=C(c1ccc(F)c(Cl)c1)C1C[C@@H]1C(=O)O` (stereo partly drawn) [(1S)-2-[(3-Chloro-4-fluorophenyl)carbonyl]cyclopropane-1-carboxylic acid]: the inhibition at 30 µM was 68%.

In the case of `C[C@]1(C(=O)O)C[C@@H]1C(=O)c1ccc(Cl)c(Cl)c1` [(1S,2S)-2-(3,4-dichlorobenzoyl)-1-methylcyclopropane-1-carboxylic acid], the inhibition at 30 µM came out at 98.6%.

For `O=C(Nc1ccccc1)[C@H]1C[C@@H]1C(=O)c1ccc(Cl)c(Cl)c1` [(1S,2S)-2-[(3,4-Dichlorophenyl)carbonyl]-N-phenylcyclopropane-1-carboxamide], the inhibition at 30 µM was found to be 86%.

For `N#C[C@H]1C[C@@H]1C(=O)c1ccc(Cl)c(Cl)c1` [(1S,2S)-2-[(3,4-Dichlorophenyl)carbonyl]cyclopropane-1-carbonitrile], the inhibition at 30 µM is 68%.

Turning to `O=C(O)[C@H]1C[C@@H]1C(=O)c1ccc(Cl)c(Cl)c1` [(1S,2S)-2-[(3,4-Dichlorophenyl)carbonyl]cyclopropane-1-carboxylic acid], the inhibition at 30 µM was found to be 106%.

In the case of `O=C(O)[C@H]1C[C@@H]1C(=O)c1ccc(F)c(F)c1` [(1S,2S)-2-[(3,4-Difluorophenyl)carbonyl]cyclopropane-1-carboxylic acid], the inhibition at 30 µM came out at 88%.

Consider `O=C(NCCO)[C@H]1C[C@@H]1C(=O)c1ccc(Cl)c(Cl)c1` [(1S,2S)-2-[(3,4-dichlorophenyl)carbonyl]-N-(2-hydroxyethyl)cyclopropane-1-carboxamide], for which the inhibition at 30 µM turned out to be 94%.

In the case of `O=C(O)[C@H]1C[C@@H]1C(=O)c1cc(Cl)cc(Cl)c1` [(1S,2S)-2-[(3,5-Dichlorophenyl)carbonyl]cyclopropane-1-carboxylic acid], the inhibition at 30 µM was determined as 103%.

As to `O=C(O)[C@H]1C[C@@H]1C(=O)c1ccc(OC2CC2)c(Cl)c1` [(1S,2S)-2-[(3-Chloro-4-cyclopropoxyphenyl)carbonyl]cyclopropane-1-carboxylic acid], the inhibition at 30 µM is 101%.

Regarding `Cc1ccc(C(=O)[C@H]2C[C@@H]2C(=O)O)cc1Cl` [(1S,2S)-2-[(3-Chloro-4-methylphenyl)carbonyl]cyclopropane-1-carboxylic acid], the inhibition at 30 µM turned out to be 100%.

On to `O=C(O)[C@H]1C[C@@H]1C(=O)c1cccc(Cl)c1` [(1S,2S)-2-[(3-Chlorophenyl)carbonyl]cyclopropane-1-carboxylic acid], for which the inhibition at 30 µM was 105%.

As to `NC(=O)[C@H]1C[C@@H]1C(=O)c1ccc(OC2CC2)c(Cl)c1` [(1S,2S)-2-[(3-chloro-4-cyclopropoxyphenyl)carbonyl]cyclopropane-1-carboxamide], the inhibition at 30 µM amounted to 42%.

Take `O=C(O)[C@H]1C[C@@H]1C(=O)c1ccc(Cl)c(F)c1` [(1S,2S)-2-[(4-Chloro-3-fluorophenyl)carbonyl]cyclopropane-1-carboxylic acid]: the inhibition at 30 µM stood at 103%.

As to `CC(C)Oc1ccc(C(=O)[C@H]2C[C@@H]2C(=O)O)cc1Cl` [(1S,2S)-2-{[3-Chloro-4-(propan-2-yloxy)phenyl]carbonyl}cyclopropane-1-carboxylic acid], the inhibition at 30 µM amounted to 98%.

As to `O=C(O)[C@H]1C[C@@H]1C(=O)c1ccc(C(F)(F)F)c(Cl)c1` [(1S,2S)-2-{[3-Chloro-4-(trifluoromethyl)phenyl]carbonyl}cyclopropane-1-carboxylic acid], the inhibition at 30 µM is 102%.

As for `CC1(C)[C@@H](C(=O)O)[C@@H]1C(=O)c1ccc(Cl)c(Cl)c1` [(1S,3S)-3-(3,4-dichlorobenzoyl)-2,2-dimethylcyclopropane-1-carboxylic acid], the inhibition at 30 µM was 15.4%.

By % Inhibition is commonly meant the change of the read-out against control, counted positive when it falls. As for `N[C@@H](CCCCNC(=O)[C@H]1C[C@@H]1C(=O)c1ccc(Cl)c(Cl)c1)C(=O)O` [(2S)-2-Amino-6-{[(1S,2S)-2-[(3,4-dichlorophenyl)carbonyl]cyclopropyl]formamide}hexanoic acid], the “% Inhibition at 30 µM” value was found to be 98%.

`O=C(O)[C@H]1N[C@@H]1C(=O)c1ccc(Cl)c(Cl)c1` [(2S,3S)-3-[(3,4-Dichlorophenyl)carbonyl]aziridine-2-carboxylic acid]: the inhibition at 30 µM was determined as 101%.

As to `C[N+](C)(C)CC(CC(=O)O)OC(=O)[C@H]1C[C@@H]1C(=O)c1ccc(Cl)c(Cl)c1` (stereo partly drawn) [(3-Carboxy-2-{[(1S,2S)-2-[(3,4-dichlorophenyl)carbonyl]cyclopropyl]carbonyloxy}propyl)trimethylazanium], the “% Inhibition at 30 µM” value was determined as 99%.

As for `CCCCOC(=O)[C@H]1C[C@@H]1C(=O)c1ccc(Cl)c(Cl)c1` [Butyl (1S,2S)-2-[(3,4-Dichlorophenyl)carbonyl]cyclopropane-1-carboxylate], the inhibition at 30 µM was 101%.

Regarding `COC(=O)[C@H]1C[C@@H]1C(=O)c1cc(Cl)cc(Cl)c1` [Methyl (1S,2S)-2-[(3,5-dichlorophenyl)carbonyl]cyclopropane-1-carboxylate], the inhibition at 30 µM stood at 104%.

As for `CC(C)OC(=O)[C@H]1C[C@@H]1C(=O)c1ccc(Cl)c(Cl)c1` [Propan-2-yl (1S,2S)-2-[(3,4-dichlorophenyl)carbonyl]cyclopropane-1-carboxylate], the inhibition at 30 µM came out at 101%.

Consider `O=C(O)[C@H]1C[C@@H]1C(=O)c1ccc(F)c(Cl)c1` [Sodium (1S,2S)-2-[(3-chloro-4-fluorophenyl)carbonyl]cyclopropane-1-carboxylate], for which the inhibition at 30 µM was 102%.

The same experiment, now with this note: compound at 30 µM; KMO enzyme from mouse liver mitochondria; 100 μM L-Kynurenine; 40 min at RT; listed as 1S,2S)-2-(3-chloro-4-cyclopropoxybenzoyl)cyclopropane-1-carboxylic acid.
Consider `O=C(O)[C@H]1C[C@@H]1C(=O)c1ccc(OC2CC2)c(Cl)c1` [(1S,2S)-2-[(3-Chloro-4-cyclopropoxyphenyl)carbonyl]cyclopropane-1-carboxylic acid], for which the “% Inhibition at 30 µM” value is on record as 100.5%.
